Measured values taken from patent US11491185B2, “Intra-mammary teat sealant formulation and method of using same to reduce or eliminate visual defects in aged cheeses” (Wisconsin Alumni Research Foundation, priority 2006, dated 2022).

Experiment: Laboratory-induced black spot defect: cheese with ITS components exposed to aged cheese volatiles or hydrogen sulfide gas
Type: physicochemical
Settings: blended in cheese, exposed to authentic cheese volatiles or H2S gas
Procedure: FIGS. 4A and 4B are images of laboratory-induced black spot defects. In FIG. 4A, the various components of “ORBESEAL”-brand intra-mammary teat sealant (ITS) were blended with cheese and each spot was photographed immediately. […] Sites 4 and 5 contain bismuth subnitrate and the intact “ORBESEAL”-brand ITS formulation, respectively.
To confirm the reactivity of bismuth subnitrate as a reactant in forming bismuth Ill sulfide nanorods, additional assays were conducted to see if BSD could be purposefully recreated in the lab. In short, cheeses were manufactured with known amounts of ITS components and subjected to either the authentic volatile gasses produced by maturing cheeses or exposed directly to the hypothesized bismuth subnitrate co-reactant, hydrogen sulfide gas. […] No other ITS component formed black spots when so exposed. Furthermore, the susceptible sites formed identically black pigmentation when exposed to either authentic cheese volatiles or to hydrogen sulfide gas, thus confirming that hydrogen sulfide gas was the suspected co-reactant.

## O=[N+]([O-])[O-].O=[N+]([O-])[O-].O=[N+]([O-])[O-].O=[N+]([O-])[O-].[Bi+3].[Bi+3].[Bi+3].[Bi+3].[Bi+3].[O-2].[OH-].[OH-].[OH-].[OH-].[OH-].[OH-].[OH-].[OH-].[OH-] [bismuth subnitrate]
  Formation of black pigmentation (black spots) with nanorod structures: formed identical black pigmentation
